# Laboratory results: PMC6629894, “Ruthenium Complexes Containing Heterocyclic Thioamidates Trigger Caspase-Mediated Apoptosis Through MAPK Signaling in Human Hepatocellular Carcinoma Cells” (Frontiers in Oncology, 2019)
# Read-outs that look alike come from different tables or passages of the source. Marks after values point to notes of the source that are not given here.
# Columns and labels:
# [1] = test system: K-562 (human chronic myelogenous leukemia); test: Alamar blue cytotoxicity assay, 72 h; assay type: cell-based
# From the text: (§1) The cell lines HepG2 (human hepatocellular carcinoma), HL-60 (human promyelocytic leukemia), K-562 (human chronic myelogenous leukemia), B16-F10 (mouse melanoma), MCF-7 (human breast carcinoma), HCT116 (human colon carcinoma), HSC-3 (human oral squamous cell carcinoma), SCC-4 (human oral squamous cell carcinoma), MRC-5 (human lung fibroblast), WT SV40 MEF (wild-type immortalized mouse embryonic fibroblast), and BAD KO SV40 MEF (BAD gene knockout immortalized mouse embryonic fibroblasts) were obtained from the American Type Culture Collection (ATCC, Manassas, VA, USA). Cells were cultured in RPMI 1640 medium (Gibco-BRL, Gaithersburg, MD, USA) with 10% fetal bovine serum (Life, Carlsbad, CA, USA), 2 mM L-glutamine (Vetec Química Fina, Duque de Caxias, RJ, Brazil) and 50 μg/mL gentamycin (Life). For all experiments, adherent cells were collected by treatment with 0.25% trypsin-EDTA solution (Gibco-BRL). All cell lines were cultured in flasks at 37°C in 5% CO2 and were subcultured every 3–4 days to maintain exponential growth. All cell lines were tested for mycoplasma using a mycoplasma staining kit (Sigma-Aldrich Co.) to validate that the cells that were used were free from contamination.
# (§2) Cytotoxicity was measured colorimetrically using an Alamar blue method that was performed as previously described ([20], [21]). Cells were seeded in 96-well plates for all experiments (7 × 10^4 cells/mL for adherent cells or 3 × 10^5 cells/mL for suspension cells in 100 μL of medium) and incubated overnight at 37°C with 5% CO2 to allow for adherence. The complexes were dissolved in 0.5% dimethyl sulfoxide (DMSO, Vetec Química Fina) at eight different concentrations from 0.19 to 25 μg/mL and were added to each well and incubated for 72 h. The negative control was treated with the vehicle (0.5% DMSO) that was used to solubilize and dilute the complexes. […] Four (for cell lines) or 24 h (for PBMCs) before the end of incubation, 20 μL of a stock solution (0.312 mg/mL) of resazurin (Sigma-Aldrich Co.) was added to each well. Absorbance was measured at 570 and 600 nm using a SpectraMax 190 Microplate Reader (Molecular Devices, Sunnyvale, CA, USA).
# B16-F10 (mouse melanoma) = test: Alamar blue cytotoxicity assay, 72 h; assay type: cell-based
# From the text: as §1, §2
# [2] = test system: HepG2 (human hepatocellular carcinoma); test: Alamar blue cytotoxicity assay, 72 h; assay type: cell-based
# From the text: as §1, §2
# [3] = test system: WT SV40 MEF (wild-type immortalized mouse embryonic fibroblast); test: Alamar blue cytotoxicity assay, 72 h; assay type: cell-based; settings: read-out: IC50 and 95% CI
# [4] = test system: HepG2 cells engrafted in C.B-17 SCID mice; test: Human hepatocellular carcinoma xenograft model; assay type: in vivo; settings: for mean tumor mass: 21 days (negative control 0.6 ± 0.1 g)
# Experimental: A total of 64 C.B-17 severe-combined immunodeficiency (SCID) mice (females, 25–30 g) were obtained and maintained at the animal facilities from Gonçalo Moniz Institute-FIOCRUZ (Salvador, Bahia, Brazil). Animals were housed in cages with free access to food and water. All animals were kept under a 12:12-h light-dark cycle (lights on at 6:00 a.m.). The animals were treated according to the ethical principles for animal experimentation of SBCAL (Brazilian Association of Laboratory Animal Science), Brazil. The Animal Ethics Committee of Gonçalo Moniz Institute–FIOCRUZ (Salvador, Bahia, Brazil) approved the experimental protocol (number 06/2015). Animal welfare was monitored throughout the study, and the pain and suffering were minimized.
# HepG2 cells = test: Trypan blue exclusion assay; assay type: cell-based, human
# Experimental: For all subsequent in vitro experiments, 2 mL of a suspension of HepG2 cells were seeded (7 × 10^4 cells/mL) and incubated in a 24-well plate overnight to allow the cells to adhere to the plate surface.
# In the trypan blue exclusion assay, the number of viable cells and non-viable cells (stained with trypan blue) were counted. Briefly, 90 μL was removed from the cell suspension, and 10 μL of trypan blue (0.4%) was added. Cell counting was performed using a light microscope with a hemocytometer filled with an aliquot of the homogenized cell suspension.
# [5] = for Differential leukocytes: Eosinophils / Differential leukocytes: Lymphocytes / Differential leukocytes: Monocytes / Differential leukocytes: Neutrophils / Erythrocytes / Total leukocytes: peripheral blood
# Experimental: A human hepatocellular carcinoma xenograft model was generated by subcutaneously implanting HepG2 cells (1 × 10^7 cells per 500 μL) into the left front armpit of C.B-17 SCID mice. […] The treatments were initiated one day after the cancer cell injection. The animals were treated intraperitoneally (200 μL per animal) once a day for 21 consecutive days. On the 22nd day, the animals were anesthetized, and peripheral blood samples were collected from the brachial artery. Animals were euthanized by an anesthetic overdose, and tumors were excised and weighed.
# To evaluate the toxicological aspects, mice were weighed at the beginning and at the end of the experiment. […] Hematological analysis was performed using an Advia 60 hematology system (Bayer, Leverkusen, Germany).
# [6] = test system: BAD KO SV40 MEF (BAD gene knockout immortalized mouse embryonic fibroblasts); test: Alamar blue cytotoxicity assay, 72 h; assay type: cell-based; settings: read-out: IC50 and 95% CI
# [7] = test system: multicellular spheroids formed from HepG2 cells; test: 3D multicellular spheroid culture, Alamar blue, 72 h; assay type: cell-based, human; settings: read-out: IC50 and 95% CI, 3D HepG2 spheroids
# Experimental: HepG2 cells were cultivated as 3D multicellular spheroids in a 96-well plate with a cell-repellent surface. Briefly, 100 μL of a suspension of cells (5 × 10^5 cells/mL) was seeded into a 96-well plate with a cell-repellent surface (Greiner Bio-One, Kremsmünster, Austria) and cultured in RPMI 1640 medium with 10% fetal bovine serum, 2 mM glutamine plus 3% Matrigel (BD Biosciences, San Jose, CA, EUA) and 50 μg/mL gentamycin at 37°C with 5% CO2. Spheroids with stable structures formed after 3 days. Then, the complexes were dissolved in 0.5% DMSO at eight different concentrations from 0.19 to 25 μg/mL, were added to each well and incubated for 72 h. […] At the end of the experiment, morphological changes were examined by light microscopy (Olympus BX41, Tokyo, Japan) using Image-Pro software (Media Cybernetics, Inc. Silver Spring, USA), and cytotoxicity was quantified with the Alamar blue method as described above.
smiles,measurement,setting,value
"Cn1ccnc1[S-].F[P-](F)(F)(F)(F)F.[Ru+2].c1ccc(-c2ccccn2)nc1.c1ccc(P(CCCCP(c2ccccc2)c2ccccc2)c2ccccc2)cc1 [Complex 1, [Ru(mmi)(bipy)(dppb)]PF6]",Selectivity index (SI = IC50 [noncancerous cells]/IC50 [cancer cells]),[1]; PBMCs vs K-562,1.9
same,IC50,"[1]; read-out: IC50 and 95% CI, K-562, 72 h",1.4 µM
same,Selectivity index (SI = IC50 [noncancerous cells]/IC50 [cancer cells]),B16-F10 (mouse melanoma); MRC-5 vs B16-F10,1.3
same,Selectivity index (SI = IC50 [noncancerous cells]/IC50 [cancer cells]),B16-F10 (mouse melanoma); PBMCs vs B16-F10,1.5
same,IC50,"[2]; read-out: IC50 and 95% CI, HepG2, 72 h",2.6 µM
same,IC50,[3],1.1 µM
same,mean tumor mass,[4]; 0.5 mg/kg/day i.p.,0.4 ± 0.1 g
same,mean tumor mass,[4]; 1 mg/kg/day i.p.,0.3 ± 0.1 g
same,tumor mass inhibition rates,"[4]; 0.5 and 1 mg/kg/day i.p., 21 days",31.5–45.4%
same,reduction of the number of viable cells vs negative control,"HepG2 cells; 5 μM, 24 h",40.1%
same,reduction of the number of viable cells vs negative control,"HepG2 cells; 5 μM, 48 h",80.9%
same,reduction of the number of viable cells vs negative control,"HepG2 cells; 10 μM, 24 h",78.9%
same,reduction of the number of viable cells vs negative control,"HepG2 cells; 10 μM, 48 h",93.9%
same,Initial body weight,[5]; 0.5 mg/kg/day,21.7 ± 0.2 g
same,Final body weight,"[5]; 0.5 mg/kg/day i.p., 21 days",20.4 ± 0.3 g
same,Survival,"[5]; 0.5 mg/kg/day i.p., 21 days",10/10
same,Initial body weight,[5]; 1 mg/kg/day,20.3 ± 0.2 g
same,Final body weight,"[5]; 1 mg/kg/day i.p., 21 days",20.9 ± 0.4 g
same,Survival,"[5]; 1 mg/kg/day i.p., 21 days",10/10
same,Differential leukocytes: Eosinophils,"[5]; 0.5 mg/kg/day, 21 days",0.7%
same,Differential leukocytes: Lymphocytes,"[5]; 0.5 mg/kg/day, 21 days",36.4%
same,Differential leukocytes: Monocytes,"[5]; 0.5 mg/kg/day, 21 days",39.9%
same,Differential leukocytes: Neutrophils,"[5]; 0.5 mg/kg/day, 21 days",23.8%
same,Erythrocytes,"[5]; 0.5 mg/kg/day, 21 days",10.5 ± 0.6 10^6cells/μL
same,Total leukocytes,"[5]; 0.5 mg/kg/day, 21 days",2.3 ± 0.4 10^3cells/μL
same,Differential leukocytes: Eosinophils,"[5]; 1 mg/kg/day, 21 days",1.4%
same,Differential leukocytes: Lymphocytes,"[5]; 1 mg/kg/day, 21 days",55.5%
same,Differential leukocytes: Monocytes,"[5]; 1 mg/kg/day, 21 days",20.1%
same,Differential leukocytes: Neutrophils,"[5]; 1 mg/kg/day, 21 days",24.4%
same,Erythrocytes,"[5]; 1 mg/kg/day, 21 days",6.7 ± 0.9 10^6cells/μL
same,Total leukocytes,"[5]; 1 mg/kg/day, 21 days",3.9 ± 1.9 10^3cells/μL
same,IC50,[6],0.7 µM
same,IC50,[7],6.5 µM
"COc1cccc2c1C(=O)c1c(O)c3c(c(O)c1C2=O)C[C@@](O)(C(=O)CO)C[C@@H]3O[C@H]1C[C@H](N)[C@H](O)[C@H](C)O1 [Doxorubicin, reference compound]",Selectivity index (SI = IC50 [noncancerous cells]/IC50 [cancer cells]),[1]; MRC-5 vs K-562,0.4
same,Selectivity index (SI = IC50 [noncancerous cells]/IC50 [cancer cells]),[1]; PBMCs vs K-562,2.8
same,Selectivity index (SI = IC50 [noncancerous cells]/IC50 [cancer cells]),B16-F10 (mouse melanoma); MRC-5 vs B16-F10,2.0
same,IC50,"B16-F10 (mouse melanoma); Mus musculus, B16-F10, 72 h, read-out: IC50 and 95% CI",0.2 µM
same,Selectivity index (SI = IC50 [noncancerous cells]/IC50 [cancer cells]),B16-F10 (mouse melanoma); PBMCs vs B16-F10,12.5
same,Selectivity index (SI = IC50 [noncancerous cells]/IC50 [cancer cells]),[2]; MRC-5 vs HepG2,1.3
same,Selectivity index (SI = IC50 [noncancerous cells]/IC50 [cancer cells]),[2]; PBMCs vs HepG2,8.3
same,IC50,"[3]; Mus musculus, Fibroblast",0.04 µM
same,reduction of tumor weight vs negative control,"[4]; 0.3 mg/kg/day i.p., 21 days",36.8%
same,reduction of the number of viable cells vs negative control,"HepG2 cells; 2 μM, 24 h",53.1%
same,reduction of the number of viable cells vs negative control,"HepG2 cells; 2 μM, 48 h",74.7%
same,Initial body weight,[5]; 0.3 mg/kg/day,22.3 ± 0.4 g
same,Final body weight,"[5]; 0.3 mg/kg/day i.p., 21 days",19.5 ± 0.6 g
same,Heart relative weight,"[5]; 0.3 mg/kg/day i.p., 21 days",0.5 ± 0.02 g/100 g body weight
same,Kidney relative weight,"[5]; 0.3 mg/kg/day i.p., 21 days",1.5 ± 0.04 g/100 g body weight
same,Liver relative weight,"[5]; 0.3 mg/kg/day i.p., 21 days",4.8 ± 0.1 g/100 g body weight
same,Lung relative weight,"[5]; 0.3 mg/kg/day i.p., 21 days",0.9 ± 0.06 g/100 g body weight
same,Differential leukocytes: Eosinophils,"[5]; 0.3 mg/kg/day, 21 days",1.0%
same,Differential leukocytes: Lymphocytes,"[5]; 0.3 mg/kg/day, 21 days",49.3%
same,Differential leukocytes: Monocytes,"[5]; 0.3 mg/kg/day, 21 days",1.0%
same,Differential leukocytes: Neutrophils,"[5]; 0.3 mg/kg/day, 21 days",48.8%
same,Erythrocytes,"[5]; 0.3 mg/kg/day, 21 days",8.9 ± 0.7 10^6cells/μL
same,Total leukocytes,"[5]; 0.3 mg/kg/day, 21 days",1.5 ± 0.2* 10^3cells/μL
same,IC50,"[6]; Mus musculus, Fibroblast",0.4 µM
same,IC50,[7]; Homo sapiens,10.3 µM
